Test results taken from patent US8841233B2, “Herbicidal compositions comprising 4-amino-3-chloro-5-fluoro-6-(4-chloro-2-fluoro-3-methoxyphenyl) pyridine-2-carboxylic acid or a derivative thereof and 4-hydroxyphenyl-pyruvate dioxygenase (HPPD) inhibitors” (Dow Agrosciences LLC, priority 2012, dated 2014).

How the values were obtained:
SCPJU = assay: In-water applied weed control, transplanted paddy rice, greenhouse (Example II); assay type: in vivo, Schoenoplectus juncoides (Roxb.) Palla; conditions: 4.38 gae/ha
Method: Evaluation of in-Water Applied Herbicidal Mixtures for Weed Control in Transplanted Paddy Rice
Weed seeds or nutlets of the desired test plant species were planted in puddled soil (mud) prepared by mixing a shredded, non-sterilized mineral soil (50.5 percent silt, 25.5 percent clay, and 24 percent sand, with a pH of about 7.6 and an organic matter content of about 2.9 percent) and water at a 1:1 volumetric ratio. The prepared mud was dispensed in 365 mL aliquots into 16-ounce (oz.) non-perforated plastic pots with a surface area of 86.59 square centimeters (cm^2) leaving a headspace of 3 centimeters (cm) in each pot. Mud was allowed to dry overnight prior to planting or transplanting. Rice seeds were planted in Sun Gro MetroMix® 306 planting mixture, which typically has a pH of 6.0 to 6.8 and an organic matter content of about 30 percent, in plastic plug trays. Seedlings at the second or third leaf stage of growth were transplanted into 840 mL of mud contained in 32-oz. non-perforated plastic pots with a surface area of 86.59 cm^2 4 days prior to herbicide application. The paddy was created by filling the headspace of the pots with 2.5 to 3 cm of water. When required to ensure good germination and healthy plants, a fungicide treatment and/or other chemical or physical treatment was applied. The plants were grown for 4-22 days in a greenhouse with an approximate 14 h photoperiod which was maintained at about 29′C during the day and 26° C. during the night. Nutrients were added as Osmocote® (19:6:12, N:P:K+ minor nutrients) at 2 g per 16-oz. pot and 4 g per 32-oz. pot. […]
Treatment requirements for each compound or herbicidal component were calculated based upon the rates being tested, the concentration of active ingredient or acid equivalent in the formulation, an application volume of 2 mL per component per pot, and an application area of 86.59 cm^2 per pot.
For formulated compounds, a measured amount was placed in an individual 100 or 200 mL glass vial and was dissolved in a volume of 1.25% (v/v) Agri-Dex® crop oil concentrate to obtain application solutions. […]

XANST = assay: Pre-emergence soil-applied weed control, greenhouse (Example III); assay type: in vivo, Xanthium strumarium L.
Description: Evaluation of Pre-emergence Soil-Applied Herbicidal Mixtures for Weed Control
Seeds or nutlets of the desired test plant species were planted in a soil matrix prepared by mixing a loam soil (32 percent silt, 23 percent clay, and 45 percent sand, with a pH of about 6.5 and an organic matter content of about 1.9 percent) and calcareous grit in an 80 to 20 ratio. The soil matrix was contained in plastic pots with a volume of 1 quart and a surface area of 83.6 square centimeters (cm^2).
Treatments consisted of the benzyl ester of 4-amino-3-chloro-5-fluoro-6-(4-chloro-2-fluoro-3-methoxy-phenyl)pyridine-2-carboxylic acid (compound A) formulated as an SC (suspension concentrate) and various herbicidal components alone and in combination. Forms of compound A were applied on an acid equivalent basis.
Other herbicidal components were applied on an acid equivalent or active ingredient basis and included the 4-hydroxyphenyl pyruvate dioxygenase (HPPD)-inhibiting herbicide, isoxaflutole, formulated as Balance Pro®.
Treatment requirements were calculated based upon the rates being tested, the concentration of active ingredient or acid equivalent in the formulation, and a 12 mL application volume at a rate of 187 L/ha.
For treatments comprised of formulated compounds, measured amounts of compounds were placed individually in 25 mL glass vials and diluted in a volume of 1.25% (v/v) Agri-Dex® crop oil concentrate (COC) to obtain 12× stock solutions. […] Application solutions were prepared by adding an appropriate amount of each stock solution (e.g., 1 mL) and diluted to the appropriate final concentrations with the addition of 10 mL of an aqueous mixture of 1.25% (v/v) COC so that the final spray solutions contained 1.25% (v/v) COC.
All stock solutions and applications solutions were visually inspected for compound compatibility prior to application. Spray solutions were applied to the soil with an overhead Mandel track sprayer equipped with a 8002E nozzles calibrated to deliver 187 L/ha over an application area of 0.503 m^2 at a spray height of 18 inches (46 cm) above average pot height. Control pots were sprayed in the same manner with the solvent blank.
The treated and control pots were placed in a greenhouse and top watered as needed. When required to ensure good germination and healthy plants, a fungicide treatment and/or other chemical or physical treatment was applied. […] After approximately 4 weeks, the condition of the test plants as compared with that of the untreated plants was determined visually and scored on a scale of 0 to 100 percent where 0 corresponds to no injury or growth inhibition and 100 corresponds to complete kill. […]

COc1c(Cl)ccc(-c2nc(C(=O)OCc3ccccc3)c(Cl)c(N)c2F)c1F [Compound A Benzyl Ester, benzyl ester of 4-amino-3-chloro-5-fluoro-6-(4-chloro-2-fluoro-3-methoxy-phenyl)pyridine-2-carboxylic acid]
Visual Weed Control (%) - 21 DAA SCPJU Obs (SCPJU): 70% | Visual Weed Control (%) - 32 DAA XANST Obs (XANST; 8 gae/ha): 33% | Visual Weed Control (%) - 32 DAA XANST Obs (XANST; 16 gae/ha): 35% | Visual Weed Control (%) - 32 DAA XANST Obs (XANST; 32 gae/ha): 65%
